In US10172355B2, “Safened herbicidal compositions including 4-amino-3-chloro-5-fluoro-6-(4-chloro-2-fluoro-3-methoxyphenyl)pyridine-2-carboxylic acid or a derivative thereof for use in rice” (Dow AgroSciences LLC, priority 2012, dated 2019):
Read-outs that look alike come from different tables or passages of the source.

What was measured:
ORYSA=Orysa sativa, Rice = test: Postemergence foliar-applied herbicides and safeners in direct-seeded rice, visual injury; format: in vivo; settings: foliar; for Visual Injury (%) - 21 DAA ORYSA-‘Clearfield 171’ Obs / Visual Injury (%) - 21 DAA ORYSA-‘Neptune’ Obs / Visual Injury (%) - 21 DAA ORYSA-‘Wells’ Obs: Tables 1,2,7,8; for Visual crop injury (%) at 140 g/ha / Visual crop injury (%) at 280 g/ha: Oryza sativa, 480 h, read-out: Visual Injury (%) - 20 DAA ORYSA-‘Clearfield 171’ Obs
From the text: (§1) Seeds or nutlets of the desired test plant species were planted in a soil matrix prepared by mixing a loam or sandy loam soil (e.g., 28.6 percent silt, 18.8 percent clay, and 52.6 percent sand, with a pH of about 5.8 and an organic matter content of about 1.8 percent) and calcareous grit in an 80 to 20 ratio. The soil matrix was contained in plastic pots with a surface area of 84.6 square centimeters (cm^2). When required to ensure good germination and healthy plants, a fungicide treatment and/or other chemical or physical treatment was applied. The plants were grown for 8-22 days in a greenhouse with an approximate 14 hr photoperiod which was maintained at about 29° C. during the day and 26° C. during the night. Nutrients (Peters Excel 15-5-15 5-Ca 2-Mg and iron chelate) were applied in the irrigation solution as needed and water was added on a regular basis. Supplemental lighting was provided with overhead metal halide 1000-Watt lamps as necessary. The plants were employed for testing when they reached the second or third true leaf stage.
(§2) Treatments consisted of the acid or esters of 4-amino-3-chloro-5-fluoro-6-(4-chloro-2-fluoro-3-methoxy-phenyl)pyridine-2-carboxylic acid (compound A) and various safener components alone and in combination. Forms of compound A were applied on an acid equivalent basis. Safener components were applied on an active ingredient or acid equivalent basis depending on the compound.
(§3) Treatment requirements were calculated based upon the rates being tested, the concentration of active ingredient or acid equivalent in the formulation, and a 12 mL application volume at a rate of 187 L/ha.
(§4) For treatments comprised of formulated compounds, measured amounts of compounds were placed individually in 25 mL glass vials and diluted in a volume of 1.25% (v/v) Agri-dex crop oil concentrated to obtain 12× stock solutions. […] Application solutions were prepared by adding an appropriate amount of each stock solution (e.g., 1 mL) and diluted to the appropriate final concentrations with the addition of 10 mL of an aqueous mixture of 1.25% (v/v) Agri-dex crop oil concentrate so that the final spray solutions contained 1.25% (v/v) Agri-dex crop oil concentrate.
(§5) For treatments comprised of technical compounds, weighed amounts were placed individually in 25 mL glass vials and dissolved in a volume of 97:3 v/v acetone/DMSO to obtain 12× stock solutions. […] Application solutions were prepared by adding an appropriate amount of each stock solution (e.g., 1 mL) and diluted to the appropriate final concentrations with the addition of 10 mL of an aqueous mixture of 1.5% (v/v) Agri-dex crop oil concentrate so that the final spray solutions contained 1.25% (v/v) Agri-dex crop oil concentrate. When technical materials were used, the concentrated stock solutions were added to the spray solutions so that the final acetone and DMSO concentrations of the application solutions were […], respectively.
(§6) For treatments comprised of formulated and technical compounds, weighed amounts of the technical materials were placed individually in 25 mL glass vials and dissolved in a volume of 97:3 v/v acetone/DMSO to obtain 12× stock solutions, and measured amounts of the formulated compounds were placed individually in 25 mL glass vials and diluted in a volume of 1.5% (v/v) Agri-dex crop oil concentrate or water to obtain 12× stock solutions. […] Application solutions were prepared by adding an appropriate amount of each stock solution (e.g., 1 mL) and diluted to the appropriate final concentrations with the addition of an appropriate amount of an aqueous mixture of 1.5% (v/v) Agri-dex crop oil concentrate so that the final spray solutions contained 1.25% (v/v) Agri-dex crop oil concentrate. When required, additional water and/or 97:3 v/v acetone/DMSO was added to individual application solutions so that the final acetone and DMSO concentrations of the application solutions being compared were 8.1% and 0.25%, respectively. […]

[1] = tested on: ECHCG=Echinochloa crus-galli; test: Postemergence foliar-applied herbicides and safeners, visual injury of weed; format: in vivo; settings: foliar; for pest or weed control at 280 g/ha / pest or weed control at 140 g/ha: Echinochloa crus-galli, 480 h, read-out: Visual Injury (%) - 20 DAA ECHCG Obs
From the text: as §1, §2, §3, §4, §5, §6

[2] = safener 280 g ai/ha alone, trial of Tables 3,4,6,10,12,14
[3] = safener 140 g ai/ha alone, trial of Tables 3,4,6,10,12,14
[4] = safener 280 g ai/ha alone, trial of Tables 5,9,11,13
[5] = safener 140 g ai/ha alone, trial of Tables 5,9,11,13

Row | SMILES | Visual crop injury (%) at 140 g/ha (ORYSA=Orysa sativa, Rice; [3]) | Visual crop injury (%) at 280 g/ha (ORYSA=Orysa sativa, Rice; [2]) | Visual Injury (%) - 20 DAA ECHCG Obs [1, 2] | pest or weed control at 140 g/ha [1, 5] | pest or weed control at 280 g/ha [1, 4] | Visual Injury (%) - 20 DAA ECHCG Obs [1, 3] | Visual crop injury (%) at 140 g/ha (ORYSA=Orysa sativa, Rice; [5]) | Visual crop injury (%) at 280 g/ha (ORYSA=Orysa sativa, Rice; [4]) | also measured
1 | CCCCCC(C)OC(=O)COc1ccc(Cl)c2cccnc12 (centres unmarked) [Cloquintocet-mexyl] | – | – | – | – | – | – | – | – | Visual Injury (%) - 21 DAA ORYSA-‘Clearfield 171’ Obs (ORYSA=Orysa sativa, Rice; safener 70 g ai/ha alone): 0%; Visual Injury (%) - 21 DAA ORYSA-‘Neptune’ Obs (ORYSA=Orysa sativa, Rice; safener 70 g ai/ha alone): 0%; Visual Injury (%) - 21 DAA ORYSA-‘Wells’ Obs (ORYSA=Orysa sativa, Rice; safener 70 g ai/ha alone): 0%; Visual Injury (%) - 21 DAA ORYSA-‘Clearfield 171’ Obs (ORYSA=Orysa sativa, Rice; safener 140 g ai/ha alone): 0%; Visual Injury (%) - 21 DAA ORYSA-‘Neptune’ Obs (ORYSA=Orysa sativa, Rice; safener 140 g ai/ha alone): 0%; Visual Injury (%) - 21 DAA ORYSA-‘Wells’ Obs (ORYSA=Orysa sativa, Rice; safener 140 g ai/ha alone): 0%; Visual Injury (%) - 21 DAA ORYSA-‘Neptune’ Obs (ORYSA=Orysa sativa, Rice; safener 280 g ai/ha alone): 0%; Visual Injury (%) - 21 DAA ORYSA-‘Wells’ Obs (ORYSA=Orysa sativa, Rice; safener 280 g ai/ha alone): 0%
2 | Cc1ccc(NC(=O)NC(C)(C)c2ccccc2)cc1 [Daimuron, N-(4-methylphenyl)-N′-(1-methyl-1-phenylethyl)-urea] | – | – | – | – | – | – | – | – | Visual Injury (%) - 21 DAA ORYSA-‘Clearfield 171’ Obs (ORYSA=Orysa sativa, Rice; safener 70 g ai/ha alone): 0%; Visual Injury (%) - 21 DAA ORYSA-‘Neptune’ Obs (ORYSA=Orysa sativa, Rice; safener 70 g ai/ha alone): 0%; Visual Injury (%) - 21 DAA ORYSA-‘Wells’ Obs (ORYSA=Orysa sativa, Rice; safener 70 g ai/ha alone): 0%; Visual Injury (%) - 21 DAA ORYSA-‘Clearfield 171’ Obs (ORYSA=Orysa sativa, Rice; safener 140 g ai/ha alone): 0%; Visual Injury (%) - 21 DAA ORYSA-‘Neptune’ Obs (ORYSA=Orysa sativa, Rice; safener 140 g ai/ha alone): 0%; Visual Injury (%) - 21 DAA ORYSA-‘Wells’ Obs (ORYSA=Orysa sativa, Rice; safener 140 g ai/ha alone): 0%; Visual Injury (%) - 21 DAA ORYSA-‘Neptune’ Obs (ORYSA=Orysa sativa, Rice; safener 280 g ai/ha alone): 0%; Visual Injury (%) - 21 DAA ORYSA-‘Wells’ Obs (ORYSA=Orysa sativa, Rice; safener 280 g ai/ha alone): 0%
3 | C=CCN(CC=C)C(=O)C(Cl)Cl [Dichlormid, N,N-diallyl-2,2-dichloroacetamide] | 0% | 0% | – | – | – | – | – | – | pest or weed control at 280 g/ha [1, 2]: 0%
4 | CC1(C)CN2C(=O)CCC2(C)N(C(=O)C(Cl)Cl)C1 (centres unmarked) [Dicyclonon] | – | – | 0% | – | – | – | – | – | Visual Injury (%) - 20 DAA ECHCG Obs [1, 4]: 3%; Visual Injury (%) - 20 DAA ORYSA-‘Clearfield 171’ Obs (ORYSA=Orysa sativa, Rice; [3]): 0%; Visual Injury (%) - 20 DAA ORYSA-‘Clearfield 171’ Obs (ORYSA=Orysa sativa, Rice; [5]): 0%; Visual Injury (%) - 20 DAA ORYSA-‘Clearfield 171’ Obs (ORYSA=Orysa sativa, Rice; [2]): 3%; Visual Injury (%) - 20 DAA ORYSA-‘Clearfield 171’ Obs (ORYSA=Orysa sativa, Rice; [4]): 0%
5 | CC(C)(SC(=O)N1CCCCC1)c1ccccc1 [Dimepiperate, S-(1-methyl-1-phenylethyl)1-piperidine-carbothioate, reference compound] | 7% | 3% | – | – | – | – | – | – | pest or weed control at 140 g/ha [1, 3]: 0%; pest or weed control at 280 g/ha [1, 2]: 0%
6 | Clc1cc(Cl)nc(-c2ccccc2)n1 [Fenclorim, 4,6-dichloro-2-phenylpyrimidine, reference compound] | 0% | 0% | 0% | 0% | 0% | 0% | 0% | 0% | –
7 | CC1(C)OC(c2ccco2)CN1C(=O)C(Cl)Cl (centres unmarked) [Furilazole, 3-(dichloroacetyl)-5-(2-furanyl)-2,2-dimethyl-oxazolidine, reference compound] | 7% | 18% | 0% | 0% | 0% | 0% | 0% | 0% | –
8 | O=C1OC(=O)c2cccc3cccc1c23 [Naphthalic anhydride, 1H,3H-naphtho[1,8-cd]pyran-1,3-dione, reference compound] | 0% | 0% | 0% | 0% | 0% | 0% | 0% | 3% | –
